According to US11524966B1 (Valo Early Discovery, Inc., priority 2017, dated 2022):

Target: T1, USP28 (USP28-5(1-1077)-TEV-6*His; LifeSensors) (Homo sapiens, UniProt Q96RU2)
T1 construct: construct USP28 (USP28-5(1-1077)-TEV-6*His; LifeSensors); TEV cleavage site (C); 6xHis (C); purchased LifeSensors
T1 sequence (Q96RU2 1-1077): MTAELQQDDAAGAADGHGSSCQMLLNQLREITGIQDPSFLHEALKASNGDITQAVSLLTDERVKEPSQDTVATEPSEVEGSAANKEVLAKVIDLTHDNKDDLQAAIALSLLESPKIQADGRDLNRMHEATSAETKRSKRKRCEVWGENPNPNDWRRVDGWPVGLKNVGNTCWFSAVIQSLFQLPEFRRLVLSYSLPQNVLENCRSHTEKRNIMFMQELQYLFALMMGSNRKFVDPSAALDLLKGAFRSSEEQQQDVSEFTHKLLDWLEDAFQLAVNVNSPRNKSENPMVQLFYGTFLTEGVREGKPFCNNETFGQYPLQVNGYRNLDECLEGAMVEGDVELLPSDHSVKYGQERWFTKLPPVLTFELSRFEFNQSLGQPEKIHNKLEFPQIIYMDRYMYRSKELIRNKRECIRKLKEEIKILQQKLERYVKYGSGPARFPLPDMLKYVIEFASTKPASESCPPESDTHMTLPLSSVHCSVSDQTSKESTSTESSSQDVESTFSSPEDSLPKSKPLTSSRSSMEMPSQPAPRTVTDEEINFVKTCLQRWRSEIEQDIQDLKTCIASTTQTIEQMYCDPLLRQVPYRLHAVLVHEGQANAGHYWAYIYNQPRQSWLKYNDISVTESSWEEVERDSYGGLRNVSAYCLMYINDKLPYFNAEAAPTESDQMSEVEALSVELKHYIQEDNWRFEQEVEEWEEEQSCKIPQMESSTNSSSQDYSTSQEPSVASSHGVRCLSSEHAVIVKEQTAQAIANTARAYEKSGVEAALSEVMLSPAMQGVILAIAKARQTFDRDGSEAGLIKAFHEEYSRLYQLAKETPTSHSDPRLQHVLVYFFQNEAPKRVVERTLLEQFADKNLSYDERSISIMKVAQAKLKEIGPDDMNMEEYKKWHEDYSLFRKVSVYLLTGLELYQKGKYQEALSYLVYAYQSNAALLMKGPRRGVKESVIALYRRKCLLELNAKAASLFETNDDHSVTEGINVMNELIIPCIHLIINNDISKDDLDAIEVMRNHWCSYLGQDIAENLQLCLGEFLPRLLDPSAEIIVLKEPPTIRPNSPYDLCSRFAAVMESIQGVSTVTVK
Assay: Ubiquitin-Rhodamine 110 Assay for USP28 Activity, Example A-1(b)
Type: biochemical
Conditions: Ubiquitin-Rhodamine 110 assay
Method in brief: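 Single-point screening used 10 μM compound with 90 min room-temperature incubation; follow-up dose-responses (25 μM top, 3-fold) used 75 pM USP28 1-1077 construct, 30 min compound preincubation, 25 nM Ub-Rh110, 20 min reaction, citric acid quench. Rh110 fluorescence normalised to no-enzyme and DMSO controls; IC50 from 4-parameter logistic fit.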

Structure (SMILES)	USP28 A-1(b) IC50 range (Example A-1(b))	USP28 A-1(b) IC50 range (format Example A-1(b))
Cc1ccc2c(N)c(C(=O)N[C@@H]3COc4cc(N5CCNCC5)cc(F)c4C3)sc2n1 [Example 10-5, (S)-3-amino-N-(5-fluoro-7-(piperazin-1-yl)chroman-3-yl)-6-methylthieno[2,3-b]pyridine-2-carboxamide]	+ (>2 μM)	–
Cc1ccc2c(N)c(C(=O)N[C@@H]3CCc4cc(N5CCN[C@@H](CO)C5)ccc4C3)sc2n1 (single isomer, unassigned) [Example 7-11]	++ (0.2-2 μM)	–
Cc1cnc2c(N)c(C(=O)N[C@H]3CCc4cc(N5CCNC[C@@H](O)C5)ccc4C3)sc2n1 (single isomer, unassigned) [Example 7-4]	++ (0.2-2 μM)	–
CCn1ccc2cc(C(=O)N[C@@H]3CCc4cc(N5CC6CCC(C5)N6)ccc4C3)cnc21 (single isomer, unassigned) [Example 11-10]	++ (0.2-2 μM)	–
Cc1ccc2c(N)c(C(=O)N[C@@H]3CCc4c(F)c(N5CCNCC5)cc(F)c4C3)sc2n1 (single isomer, unassigned) [Example 22-2]	–	+++ (0.05-0.2 μM)
Cc1ccc2c(N)c(C(=O)N[C@@H]3COc4c(ccc(N5CCNCC5)c4Cl)C3)sc2n1 [Example 13-8, (S)-3-amino-N-(8-chloro-7-(piperazin-1-yl)chroman-3-yl)-6-methylthieno[2,3-b]pyridine-2-carboxamide]	–	+ (>2 μM)
Cc1ccc2c(N)c(C(=O)N[C@H]3CCc4cc(N5CCN[C@H](CO)C5)ccc4C3)sc2n1 (single isomer, unassigned) [Example 7-8]	+ (>2 μM)	–
Cc1cc(C)c2c(N)c(C(=O)N[C@H]3COc4cc(N5CC6CC(C5)N6)cc(F)c4C3)sc2n1 [Example 10-7, N-((3R)-7-(3,6-diazabicyclo[3.1.1]heptan-3-yl)-5-fluorochroman-3-yl)-3-amino-4,6-dimethylthieno[2,3-b]pyridine-2-carboxamide]	+++ (0.05-0.2 μM)	–
Cc1ccc2c(N)c(C(=O)N[C@@H]3CCc4c(ccc(N5CCNCC5)c4F)C3)sc2n1 (single isomer, unassigned) [Example 21-5]	–	++++ (0.001-0.05 μM)
Cc1cc(C)c2c(N)c(C(=O)N[C@H]3COc4cc(N5CC6CNCC(C5)O6)cc(F)c4C3)sc2n1 [Example 10-13, N-((3R)-7-(9-oxa-3,7-diazabicyclo[3.3.1]nonan-3-yl)-5-fluorochroman-3-yl)-3-amino-4,6-dimethylthieno[2,3-b]pyridine-2-carboxamide]	++++ (0.001-0.05 μM)	–
Cc1ccc2c(N)c(C(=O)N[C@@H]3CCc4cc(N5CC6CCC(C5)N6)ccc4C3)sc2n1 [Example 11-2, N-((2R)-6-(3,8-diazabicyclo[3.2.1]octan-3-yl)-1,2,3,4-tetrahydronaphthalen-2-yl)-3-amino-6-methylthieno[2,3-b]pyridine-2-carboxamide]	++ (0.2-2 μM)	–
Cc1ccc2c(N)c(C(=O)N[C@@H]3COc4cc(N5CCNCC5)c(Cl)cc4C3)sc2n1 (single isomer, unassigned) [Example 13-6]	–	+++ (0.05-0.2 μM)
Cc1ccc2c(N)c(C(=O)N[C@H]3CCc4cc(N5CCN[C@@H](CO)C5)ccc4C3)sc2n1 (single isomer, unassigned) [Example 7-9]	+ (>2 μM)	–
Cc1cc(C)c2c(N)c(C(=O)N[C@H]3COc4cc(N5CCNCC5)cc(F)c4C3)sc2n1 [Example 10-9, (R)-3-amino-N-(5-fluoro-7-(piperazin-1-yl)chroman-3-yl)-4,6-dimethylthieno[2,3-b]pyridine-2-carboxamide]	+++ (0.05-0.2 μM)	–
